Reference: EPA's ToxValDB 9.5 (doi:10.2903/j.efsa.2012.2860)

Experiments:
Colinus virginianus = conditions: for LD50: acute, oral, mortality
Canidae = conditions: chronic; duration: 1 years; oral; Dog Other; histopathology: nonneoplastic
Anas platyrhynchos = conditions: short-term; oral; feed; mortality

With Cc1nn(C)c(F)c1C(=O)Nc1ccccc1C(C)CC(C)C (stereo not given) [Penflufen] the LD50 (Colinus virginianus; diet) was greater than 1700 mg/kg-day, the LD50 (Colinus virginianus) was greater than 4000 mg/kg-day and the NOEL (Colinus virginianus; reproduction developmental) was 96 mg/kg-day. It also gave an NOAEL (Canidae) of 7.7 mg/kg-day, an NOAEL (Rattus norvegicus; acute, oral, F, clinical signs) of 50 mg/kg-day and an LD50 (Rattus norvegicus; acute, oral, mortality) greater than 2000 mg/kg-day. The NOAEL (Rattus norvegicus; chronic, duration: 2 years, histopathology: nonneoplastic) was 4 mg/kg-day, the NOAEL (Rattus norvegicus; reproduction developmental, F, reproduction) was 71 mg/kg-day and the NOAEL (Rattus norvegicus; reproduction developmental, M, reproduction) was 58 mg/kg-day. The LD50 (Anas platyrhynchos) was greater than 2210 mg/kg-day.
